From patent US11584745B2, “Aromatic heterocyclic compound, intermediate thereof, preparation method therefor, and pharmaceutical composition and use thereof” (SHANGHAI YINGLI PHARMACEUTICAL CO., LTD, priority 2018, dated 2023)

Each compound was assayed against ALK5 (Homo sapiens (Human), UniProt P36897) (assay: Evaluation experiment of ALK5 enzyme activity inhibition IC50 (ADP-Glo kinase assay)). Conditions: 25 nM ALK5, 0.1 mg/mL peptide TGFbR1, 7 μM ATP, 30° C. 1 hour, ADP-Glo luminescence.
Assay type: biochemical
Description: 1×kinase buffer preparation: 40 mM Tris (pH 7.5), 20 mM MgCl2, 0.10% BSA, 1 mM DTT.
Compound preparation: The final detection concentration of the compound was 10 μM, which was configurated to a 100-fold concentration, i.e., 1 mM. In the second well of the 384-well plate, 100 μL of 100-fold compound was added, and 60 μL of 100% DMSO was added to other wells. 30 μL of compound from the second well was taken and added to the third well, and a 3-fold dilution was made in sequence, a total of 10 concentrations were diluted. 50 nL of compound was transferred to the reaction plate with echo.
Kinase reaction: Kinase was added to 1×kinase buffer to form a 2×enzyme solution. […] The polypeptide TGFbR1 (purchased from Signal Chem, catalog number T36-58) and ATP were added to 1×kinase buffer to form a 2×substrate solution. The final concentration of the substrate solution was 0.1 mg/mL peptide TGFbR1, 7 μM ATP. 2.5 μL of 2×enzyme solution was added to the 384-well reaction plate (there was already 50 nL of 100% DMSO dissolved compound), and 1×kinase buffer was added to the negative control well. The plate was incubated at room temperature for 10 minutes. 2.5 μL of 2× substrate solution was added to the 384-well reaction plate. The 384-well plate was covered and incubated at 30° C. for 1 hour. ADP-Glo reagent (purchased from Promege, catalog number v9102) was equilibrated to room temperature. 5 μL of ADP-Glo reagent was transferred to the reaction well of the 384-well plate to stop the reaction.
Detection of reaction results: 10 μL of kinase detection reagent was transferred to each reaction well, the plate was shaken for 1 minute and placed at room temperature for 30 minutes. The sample luminescence value was read at Synegy.
Curve fitting: The data of the luminescence reading from the Synegy program were copied. The value of the luminescence reading was converted into the percentage of inhibition by a formula (inhibition percent=(max-sample RLU)/(max-min)*100, wherein “min” was a […] reading of the control sample without enzyme; “max” was the […] reading of sample with DMSO as a control). The data were imported into MS Excel and GraphPad Prism was used for curve fitting. The ICso value was calculated.

Sequence of ALK5 (P36897 34-503): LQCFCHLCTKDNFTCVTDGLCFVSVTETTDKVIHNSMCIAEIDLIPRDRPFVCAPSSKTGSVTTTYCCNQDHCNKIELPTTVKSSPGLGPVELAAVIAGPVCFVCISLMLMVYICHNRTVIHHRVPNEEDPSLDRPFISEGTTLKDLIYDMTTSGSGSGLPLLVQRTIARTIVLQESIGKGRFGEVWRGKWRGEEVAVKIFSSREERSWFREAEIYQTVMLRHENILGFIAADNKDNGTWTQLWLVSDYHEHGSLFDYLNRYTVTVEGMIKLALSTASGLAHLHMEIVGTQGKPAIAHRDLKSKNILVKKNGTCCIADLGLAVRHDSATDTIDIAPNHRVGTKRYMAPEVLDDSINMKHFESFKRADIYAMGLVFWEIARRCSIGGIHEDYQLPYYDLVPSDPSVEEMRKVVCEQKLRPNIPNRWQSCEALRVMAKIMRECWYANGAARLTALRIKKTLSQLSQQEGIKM

Structure (SMILES)	IC50 [nM]
Cc1cccc(-c2cccn2-c2ccc3ncc(C(N)=O)n3c2)n1 [Compound 1]	13
Cc1cccc(-n2cccc2-c2ccc3ncc(C(N)=O)n3c2)n1 [Compound 4]	19
Cc1cccc(-n2cccc2-c2ccc3ncc(C(=O)N(C)C)n3c2)n1 [Compound 5]	105
Cc1cccc(-c2nccn2-c2ccc3ncc(C(N)=O)n3c2)n1 [Compound 8]	7
Cc1cccc(-c2cncn2-c2ccc3ncc(C(N)=O)n3c2)n1 [Compound 9]	136
Cc1cccc(-c2cnsc2-c2ccc3nccn3c2)n1 [Compound 16]	165
Cc1cccc(-c2cc(C)sc2-c2ccc3ncc(C(N)=O)n3c2)n1 [Compound 18]	9.4
Cc1cccc(-c2cc3ccccc3n2-c2ccc3ncc(C(N)=O)n3c2)n1 [Compound 25]	14

Results, then the compound that gave them:

IC50 [nM]	Structure (SMILES)
5.2	Cc1cccc(-c2ccsc2-c2ccc3ncc(C(N)=O)n3c2)n1 [Compound 17]
75	Cc1cccc(-c2cccnc2-c2ccc3ncc(C(N)=O)n3c2)n1 [Compound 19]
76	CNC(=O)c1cnc2ccc(-c3ncccc3-c3cccc(C)n3)cn12 [Compound 20]
21	Cc1csc(-c2ncccc2-c2ccc3ncc(C(N)=O)n3c2)n1 [Compound 23]
